± gives the standard deviation of the averaged measurements.
Columns and labels:
Experiment in all cases: level (log10 ratio to DMSO vehicle control); higher = higher biomarker level / cell amount than vehicle control
Nonafluoropentanamide = compound: NC(=O)C(F)(F)C(F)(F)C(F)(F)C(F)(F)F [Nonafluoropentanamide]; conditions: in DMSO
Procedure: (§1)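 BioMAP Diversity Plus panel of 12 human primary cell co-culture systems (3C, 4H, LPS, SAg, BT, BF4T, BE3C, CASM3C, HDF3CGF, KF3CT, MyoF, Mphg). Compounds were added 1 h before stimulation and left for 24 h (MyoF 48 h; BT 72 h for soluble read-outs or 6 d for IgG). Biomarkers were read by ELISA, cytotoxicity by SRB, PBMC viability and proliferation by Alamar Blue. Each well value was divided by the mean of 8 DMSO control wells on the same plate and log10 transformed; duplicate blinded samples were tested at 4 concentrations.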

[1] = compound: O=C(O)C=CC(F)(C(F)(F)F)C(F)(F)F [3-(Perfluoroisopropyl)-2-propenoic acid]; conditions: in DMSO
Procedure: as §1

Octafluoroadipamide = compound: NC(=O)C(F)(F)C(F)(F)C(F)(F)C(F)(F)C(N)=O [Octafluoroadipamide]; conditions: in DMSO
Procedure: as §1

Hexafluoroamylene glycol = compound: OCC(F)(F)C(F)(F)C(F)(F)CO [Hexafluoroamylene glycol]; conditions: in DMSO
Procedure: as §1

[2] = compound: C=CC(=O)OCC(F)(F)C(F)(F)C(F)(F)COC(=O)C=C [1H,1H,5H,5H-Perfluoro-1,5-pentanediol diacrylate]; conditions: 6700 nM; in DMSO
Procedure: as §1

[3] = compound: O=S(=O)(O)CCC(F)(F)C(F)(F)C(F)(F)C(F)(F)C(F)(F)C(F)(F)F [6:2 Fluorotelomer sulfonic acid]; conditions: in DMSO
Procedure: as §1

[4] = compound: FC(F)(F)C(F)(F)C(F)(F)C(F)(F)C(F)(F)C(F)(F)CC1CO1 [3-(Perfluorohexyl)-1,2-epoxypropane]; conditions: in DMSO
Procedure: as §1

| Test System | level (log10) (Nonafluoropentanamide; 6700 nM) | level (log10) (Nonafluoropentanamide; 20000 nM) | level (log10) (Nonafluoropentanamide; 60000 nM) | level (log10) ([1]; 6700 nM) | level (log10) ([1]; 20000 nM) | level (log10) ([1]; 60000 nM) | level (log10) (Octafluoroadipamide; 6700 nM) | level (log10) (Octafluoroadipamide; 20000 nM) | level (log10) (Octafluoroadipamide; 60000 nM) | level (log10) (Hexafluoroamylene glycol; 6700 nM) | level (log10) (Hexafluoroamylene glycol; 20000 nM) | level (log10) (Hexafluoroamylene glycol; 60000 nM) | level (log10) [2] | level (log10) ([3]; 6700 nM) | level (log10) ([3]; 20000 nM) | level (log10) ([3]; 60000 nM) | level (log10) ([4]; 6700 nM) | level (log10) ([4]; 20000 nM) | level (log10) ([4]; 60000 nM) |
| --- | --- | --- | --- | --- | --- | --- | --- | --- | --- | --- | --- | --- | --- | --- | --- | --- | --- | --- | --- |
| 3C:CCL2/MCP-1 | -0.0045 ± 0.016 | -0.0125 ± 0.018 | 0.011 ± 0.058 | 0.0025 ± 0.022 | -0.009 ± 0.0014 | 0.019 ± 0.02 | -0.0065 ± 0.016 | -0.002 ± 0.0014 | 0.03 ± 0.013 | -0.024 ± 0.013 | -0.013 ± 0.0042 | -0.003 | -0.026 ± 0.0042 | -0.0095 ± 0.021 | -0.017 ± 0.024 | 0.012 ± 0.0071 | 0.011 ± 0.02 | -0.004 ± 0.0014 | 0.021 ± 0.031 |
| 3C:CD62E/E-Selectin | -0.014 ± 0.025 | -0.017 ± 0.031 | 0.0085 ± 0.011 | -0.009 ± 0.013 | -0.031 ± 0.0085 | -0.0155 ± 0.013 | -0.0175 ± 0.011 | -0.0115 ± 0.0064 | 0.012 ± 0.016 | -0.0185 ± 0.037 | -0.021 ± 0.025 | -0.012 ± 0.0014 | -0.135 ± 0.049 | -0.021 ± 0.034 | 0.003 ± 0.048 | 0.026 ± 0.038 | -0.035 ± 0.013 | -0.0375 ± 0.005 | -0.0415 ± 0.0078 |
| 3C:CD87/uPAR | -0.037 ± 0.0085 | -0.018 ± 0.016 | -0.0095 ± 0.022 | 0.025 ± 0.0071 | 0.033 ± 0.038 | 0.0465 ± 0.042 | 0.012 ± 0.011 | -0.0005 ± 0.011 | -0.0145 ± 0.0092 | -0.0295 ± 0.047 | -0.0235 ± 0.039 | -0.0075 ± 0.029 | 0.014 ± 0.034 | -0.0235 ± 0.07 | -0.0245 ± 0.023 | -0.0015 ± 0.015 | 0.03 ± 0.0085 | 0.032 ± 0.0085 | 0.052 ± 0.017 |
| 3C:CD106/VCAM-1 | -0.024 ± 0.028 | -0.0135 ± 0.039 | -0.016 ± 0.0071 | -0.002 ± 0.03 | -0.039 ± 0.037 | -0.0205 ± 0.00071 | -0.0215 ± 0.08 | -0.02 ± 0.055 | 0.0005 ± 0.079 | -0.0205 ± 0.013 | -0.031 ± 0.011 | -0.0065 ± 0.0092 | -0.179 ± 0.025 | -0.019 ± 0.0071 | -0.035 | -0.014 ± 0.013 | -0.0145 ± 0.018 | -0.033 ± 0.025 | -0.0395 ± 0.011 |
| 3C:CD141/Thrombomodulin | -0.0635 ± 0.074 | -0.0235 ± 0.0035 | -0.069 ± 0.051 | -0.0125 ± 0.023 | -0.006 ± 0.0057 | 0.0045 ± 0.016 | 0.0505 ± 0.044 | 0.048 ± 0.02 | 0.064 ± 0.0099 | 0.0175 ± 0.052 | -0.01 ± 0.033 | -0.011 ± 0.088 | -0.124 ± 0.013 | -0.0065 ± 0.05 | -0.0475 ± 0.019 | -0.0415 ± 0.033 | -0.0025 ± 0.028 | -0.0095 ± 0.00071 | -0.0075 ± 0.0035 |
| 3C:CXCL8/IL-8 | -0.001 ± 0.016 | -0.0145 ± 0.0092 | 0.0345 ± 0.04 | -0.001 ± 0.038 | -0.0275 ± 0.0092 | 0.028 ± 0.033 | 0.0145 ± 0.042 | 0.0035 ± 0.025 | 0.041 ± 0.0042 | -0.0275 ± 0.069 | -0.022 ± 0.042 | 0.012 ± 0.028 | -0.0045 ± 0.018 | -0.034 ± 0.055 | -0.0325 ± 0.053 | 0.06 ± 0.0085 | -0.002 ± 0.0085 | -0.004 ± 0.0014 | 0.035 ± 0.042 |
| 3C:CXCL9/MIG | -0.0005 ± 0.0021 | -0.0005 ± 0.021 | 0.0065 ± 0.012 | 0.004 ± 0.0071 | -0.0105 ± 0.0064 | 0.0045 ± 0.016 | -0.002 ± 0.0028 | 0 ± 0.0057 | 0.024 ± 0.011 | -0.006 ± 0.0071 | -0.01 ± 0.0057 | 0.007 | -0.017 ± 0.0085 | -0.0065 ± 0.0021 | -0.009 ± 0.017 | -0.006 ± 0.0042 | 0.0065 ± 0.0064 | -0.011 ± 0.0071 | 0.013 ± 0.0099 |
| 3C:HLA-DR | -0.0095 ± 0.054 | -0.007 ± 0.0099 | 0.003 ± 0.0014 | 0.0095 ± 0.005 | -0.0135 ± 0.022 | -0.003 ± 0.028 | -0.0085 ± 0.023 | 0.0055 ± 0.0021 | 0.024 ± 0.014 | -0.0225 ± 0.0064 | -0.0205 ± 0.00071 | -0.015 ± 0.0042 | -0.092 ± 0.078 | -0.0075 ± 0.025 | -0.0145 ± 0.0078 | -0.0065 ± 0.0035 | -0.0005 ± 0.0035 | -0.006 ± 0.016 | 0.0025 ± 0.016 |
| 3C:Proliferation | 0.028 ± 0.018 | 0.016 ± 0.03 | -0.0145 ± 0.021 | -0.0185 ± 0.09 | -0.002 ± 0.037 | -0.0145 ± 0.049 | -0.0265 ± 0.036 | 0.0065 ± 0.067 | -0.0085 ± 0.063 | -0.0035 ± 0.028 | 0.0075 ± 0.067 | 0.019 ± 0.03 | -0.379 ± 0.12 | 0.0055 ± 0.0021 | 0.012 ± 0.027 | 0.0305 ± 0.039 | -0.013 ± 0.0042 | -0.0055 ± 0.054 | -0.0375 ± 0.035 |
| 3C:SRB | -0.002 ± 0.0042 | 0.0005 ± 0.0035 | -0.011 | 0.0035 ± 0.0078 | 0.0055 ± 0.019 | 0.0155 ± 0.015 | -0.0105 ± 0.047 | -0.008 ± 0.052 | -0.005 ± 0.03 | -0.01 ± 0.0085 | -0.0035 ± 0.021 | 0 ± 0.021 | -0.0305 ± 0.011 | 0.001 ± 0.0099 | 0.002 ± 0.0057 | -0.0045 ± 0.028 | 0.009 ± 0.0042 | 0.014 ± 0.0085 | 0.018 ± 0.0099 |
| 4H:CCL2/MCP-1 | -0.024 ± 0.017 | -0.017 | -0.004 ± 0.013 | 0.008 ± 0.025 | -0.0105 ± 0.022 | 0.0005 ± 0.0064 | -0.013 ± 0.0014 | -0.023 ± 0.0085 | -0.0005 ± 0.019 | 0.0255 ± 0.022 | -0.02 ± 0.027 | 0.009 ± 0.0099 | -0.058 ± 0.0028 | -0.0135 ± 0.056 | 0.0065 ± 0.029 | -0.02 ± 0.011 | 0.03 ± 0.0099 | -0.0175 ± 0.0064 | 0.0125 ± 0.019 |
| 4H:CCL26/Eotaxin-3 | -0.0005 ± 0.0035 | 0.0195 ± 0.00071 | 0.066 ± 0.017 | -0.011 ± 0.0014 | -0.011 ± 0.0014 | 0.016 ± 0.0085 | 0.04 ± 0.038 | 0.025 ± 0.069 | 0.012 ± 0.069 | 0.0655 ± 0.0021 | 0.0725 ± 0.015 | 0.0585 ± 0.0064 | -0.214 ± 0.037 | 0.017 ± 0.0014 | -0.0285 ± 0.023 | -0.095 ± 0.018 | -0.001 ± 0.011 | -0.001 ± 0.0028 | 0.005 ± 0.0057 |
| 4H:CD62P/P-selectin | -0.0135 ± 0.043 | -0.0075 ± 0.029 | 0.0075 ± 0.05 | -0.001 ± 0.02 | -0.0105 ± 0.012 | 0.023 ± 0.0085 | -0.013 ± 0.0042 | -0.0165 ± 0.032 | -0.0175 ± 0.016 | -0.029 ± 0.095 | 0.014 ± 0.058 | -0.0385 ± 0.0021 | -0.0825 ± 0.018 | -0.004 ± 0.064 | -0.003 ± 0.051 | -0.013 ± 0.054 | 0.0055 ± 0.016 | -0.0015 ± 0.019 | 0.013 ± 0.017 |

— the supplement of paper PMC10331698
